From ChEMBL document CHEMBL1144978, “A new series of potent benzodiazepine gamma-secretase inhibitors” (Bioorg Med Chem Lett, 2003)

Experiment: Inhibitory activity against human gamma-secretase using SH-SY5Y cells.
Format: cell-based

Row | SMILES | IC50
1 | CN1C(=O)C(NC(=O)CCc2ccc(F)cc2)N=C(c2ccc(C(N)=O)cc2)c2ccccc21 (centres undefined) | 110 nM
2 | CN1C(=O)C(NC(=O)CCc2ccc(F)c(F)c2)N=C(c2ccc(C(N)=O)cc2)c2ccccc21 (centres undefined) | 29 nM
3 | CN1C(=O)C(NC(=O)CCc2cc(F)cc(F)c2)N=C(c2ccc(C(N)=O)cc2)c2ccccc21 (centres undefined) | 110 nM
4 | CN1C(=O)C(NC(=O)CCc2cccc(Cl)c2Cl)N=C(c2ccc(C(N)=O)cc2)c2ccccc21 (centres undefined) | 22 nM
5 | Cc1ccc(CCC(=O)NC2N=C(c3ccc(C(N)=O)cc3)c3ccccc3N(C)C2=O)cc1 (centres undefined) | 180 nM
6 | CN1C(=O)[C@@H](NC(=O)C(Cc2ccc(Cl)c(Cl)c2)c2ccsc2)N=C(c2ccccc2)c2ccccc21 (some centres undefined) | 100 nM
7 | CN1C(=O)C(NC(=O)CCc2cc(Cl)cc(Cl)c2)N=C(c2ccc(C(N)=O)cc2)c2ccccc21 (centres undefined) | 40 nM
8 | CN1C(=O)C(NC(=O)CCc2c(Cl)cccc2Cl)N=C(c2ccc(C(N)=O)cc2)c2ccccc21 (centres undefined) | 3200 nM
9 | CN1C(=O)C(NC(=O)CCc2ccc(N)cc2)N=C(c2ccc(C(N)=O)cc2)c2ccccc21 (centres undefined) | > 10000 nM
10 | COc1ccccc1CCC(=O)NC1N=C(c2ccc(C(N)=O)cc2)c2ccccc2N(C)C1=O (centres undefined) | 5100 nM
11 | CN1C(=O)[C@@H](NC(=O)[C@@H](Cc2ccc(Cl)c(Cl)c2)NC(=O)OC(C)(C)C)N=C(c2ccccc2)c2ccccc21 | 750 nM
12 | CN1C(=O)C(NC(=O)CCc2cccc(O)c2)N=C(c2ccc(C(N)=O)cc2)c2ccccc21 (centres undefined) | 6800 nM
13 | CN1C(=O)[C@@H](NC(=O)[C@@H](Cc2ccc(Cl)c(Cl)c2)N2CCCC2)N=C(c2ccccc2)c2ccccc21 | 405 nM
14 | C[C@@H](Cc1ccc(Cl)cc1Cl)C(=O)N[C@H]1N=C(c2ccccc2)c2ccccc2N(C)C1=O | 820 nM
15 | COc1ccc(CCC(=O)NC2N=C(c3ccc(C(N)=O)cc3)c3ccccc3N(C)C2=O)cc1 (centres undefined) | 1340 nM
16 | CN1C(=O)[C@@H](NC(=O)[C@H](Cc2ccc(Cl)c(Cl)c2)c2ccc(F)cc2)N=C(c2ccccc2)c2ccccc21 | 15 nM
17 | COc1cccc(CCC(=O)NC2N=C(c3ccc(C(N)=O)cc3)c3ccccc3N(C)C2=O)c1 (centres undefined) | 1600 nM
18 | CC(Cc1ccc(Cl)cc1Cl)C(=O)NC1N=C(c2ccc(C(N)=O)cc2)c2ccccc2N(C)C1=O (centres undefined) | 8 nM
19 | CN1C(=O)[C@@H](NC(=O)[C@H](Cc2ccc(F)c(F)c2)c2ccc(F)cc2)N=C(c2ccccc2)c2ccccc21 | 3.8 nM
20 | CN1C(=O)C(NC(=O)CCc2ccc(Cl)cc2)N=C(c2ccc(C(N)=O)cc2)c2ccccc21 (centres undefined) | 15 nM
21 | CN1C(=O)C(NC(=O)CCc2cccc(Cl)c2)N=C(c2ccc(C(N)=O)cc2)c2ccccc21 (centres undefined) | 93 nM
22 | CN1C(=O)C(NC(=O)CCCc2ccccc2)N=C(c2ccc(C(N)=O)cc2)c2ccccc21 (centres undefined) | 5000 nM
23 | CN1C(=O)C(NC(=O)CCc2ccc(Cl)cc2Cl)N=C(c2ccc(C(N)=O)cc2)c2ccccc21 (centres undefined) | 33 nM
24 | CN1C(=O)C(NC(=O)CCc2ccc(Cl)c(Cl)c2)N=C(c2ccc(C(N)=O)cc2)c2ccccc21 (centres undefined) | 12 nM
25 | CN1C(=O)[C@@H](NC(=O)[C@@H](Cc2ccc(Cl)c(Cl)c2)c2ccccc2)N=C(c2ccccc2)c2ccccc21 | 72 nM

Row | SMILES | IC50
26 | CN1C(=O)C(NC(=O)CCc2ccc(O)cc2)N=C(c2ccc(C(N)=O)cc2)c2ccccc21 (centres undefined) | > 10000 nM
27 | C[C@@H](Cc1ccc(Cl)c(Cl)c1)C(=O)N[C@H]1N=C(c2ccccc2)c2ccccc2N(C)C1=O | 320 nM
28 | CN1C(=O)C(NC(=O)C(C)(C)Cc2ccc(Cl)cc2Cl)N=C(c2ccc(C(N)=O)cc2)c2ccccc21 (centres undefined) | 400 nM
29 | CN1C(=O)C(NC(=O)Cc2ccc(Cl)cc2Cl)N=C(c2ccc(C(N)=O)cc2)c2ccccc21 (centres undefined) | > 10000 nM
30 | CN1C(=O)C(NC(=O)CCc2ccccc2)N=C(c2ccc(C(N)=O)cc2)c2ccccc21 (centres undefined) | 340 nM
31 | C[C@@H](Cc1ccc(F)c(F)c1)C(=O)N[C@H]1N=C(c2ccccc2)c2ccccc2N(C)C1=O | 220 nM
32 | CN1C(=O)[C@@H](NC(=O)C(Cc2ccc(Cl)c(Cl)c2)c2cccs2)N=C(c2ccccc2)c2ccccc21 (some centres undefined) | 37 nM
33 | CN1C(=O)C(NC(=O)/C=C/c2ccc(Cl)cc2Cl)N=C(c2ccc(C(N)=O)cc2)c2ccccc21 (centres undefined) | 4700 nM
34 | Cc1nc(C(Cc2ccc(Cl)c(Cl)c2)C(=O)N[C@H]2N=C(c3ccccc3)c3ccccc3N(C)C2=O)cs1 (some centres undefined) | 640 nM
35 | CN1C(=O)[C@@H](NC(=O)[C@H](Cc2ccc(Cl)c(Cl)c2)c2ccc(Br)cc2)N=C(c2ccccc2)c2ccccc21 | 100 nM
36 | CN1C(=O)C(NC(=O)CCc2ccccc2Cl)N=C(c2ccc(C(N)=O)cc2)c2ccccc21 (centres undefined) | 305 nM
37 | CN1C(=O)C(NC(=O)CCc2cc(Cl)ccc2Cl)N=C(c2ccc(C(N)=O)cc2)c2ccccc21 (centres undefined) | 60 nM
38 | CN1C(=O)[C@@H](NC(=O)[C@H](Cc2ccc(Cl)c(Cl)c2)c2ccccc2)N=C(c2ccccc2)c2ccccc21 | 180 nM
39 | C[C@@H](Cc1ccc(Cl)cc1Cl)C(=O)N[C@@H]1N=C(c2ccccc2)c2ccccc2N(C)C1=O | > 10000 nM
40 | CN1C(=O)C(NC(=O)CCc2cc(C(F)(F)F)cc(C(F)(F)F)c2)N=C(c2ccc(C(N)=O)cc2)c2ccccc21 (centres undefined) | 400 nM
41 | CN1C(=O)[C@@H](NC(=O)[C@H](Cc2ccc(Cl)c(Cl)c2)N2CCCC2)N=C(c2ccccc2)c2ccccc21 | 350 nM
42 | C[C@H](Cc1ccc(Cl)cc1Cl)C(=O)NC1N=C(c2ccc(C(N)=O)cc2)c2ccccc2N(C)C1=O (single isomer, unassigned; diastereomer A) | 42 nM
43 | C[C@@H](Cc1ccc(Cl)cc1Cl)C(=O)NC1N=C(c2ccc(C(N)=O)cc2)c2ccccc2N(C)C1=O (single isomer, unassigned; diastereomer A) | 500 nM
44 | CN1C(=O)[C@@H](NC(=O)C(Cc2ccc(Cl)c(Cl)c2)c2ccncc2)N=C(c2ccccc2)c2ccccc21 (single isomer, unassigned; diastereomer A) | 1360 nM
45 | CC(C)C(Cc1ccc(Cl)c(Cl)c1)C(=O)N[C@H]1N=C(c2ccccc2)c2ccccc2N(C)C1=O (single isomer, unassigned; diastereomer A) | 440 nM
46 | C[C@H](Cc1ccc(Cl)cc1Cl)C(=O)NC1N=C(c2ccc(C(N)=O)cc2)c2ccccc2N(C)C1=O (single isomer, unassigned; diastereomer B) | 920 nM
47 | C[C@@H](Cc1ccc(Cl)cc1Cl)C(=O)NC1N=C(c2ccc(C(N)=O)cc2)c2ccccc2N(C)C1=O (single isomer, unassigned; diastereomer B) | 1.9 nM
48 | CN1C(=O)[C@@H](NC(=O)C(Cc2ccc(Cl)c(Cl)c2)c2ccncc2)N=C(c2ccccc2)c2ccccc21 (single isomer, unassigned; diastereomer B) | 190 nM
49 | CC(C)C(Cc1ccc(Cl)c(Cl)c1)C(=O)N[C@H]1N=C(c2ccccc2)c2ccccc2N(C)C1=O (single isomer, unassigned; diastereomer B) | 240 nM
